Test results published in PMC8588420 (Molecules, 2021).

What was measured:
[1] = RP-TLC chromatographic lipophilicity parameter (RMW); format: physicochemical; conditions: RP2, RP18, RP18W plates; methanol-water, propan-1-ol-water, acetonitrile-water
Protocol: (§1) The lipophilicity study was performed on chromatographic plates for RP-TLC and NP-TLC analysis purchased from Merck (Darmstadt, Germany): silica gel RP18F254 (aluminum plates, No. 1.05559), silica gel RP2F254 (glass plates, No. 1.05747), and RP18WF254 (glass plates, No. 1.13142) were applied as stationary phases in the reversed-phase system. In the case of the NP-TLC system, aluminum chromatographic plates precoated with silica gel 60F254 without (No. 1.05554) and with a concentrating zone (No. 1.05583), glass plates precoated with silica gel 60CNF254 (No. 1.16464), and aluminum plates coated with the mixture of silica gel 60 and Kieselguhr F254 were tested (No. 1.05567).
The lipophilicity studies of the tested compounds were carried out on chromatographic plates 10 cm × 10 cm developed using mobile phases (50 mL) prepared by mixing the respective amounts of the organic modifier (methanol/acetonitrile/propan-1-ol/acetone) and water. In the case of NP-TLC analysis, the addition of 2.4% glacial acetic acid in the mobile phase methanol-water was used. […] The average value of RF (retardation factor) was determined in every case.
(§2) In this study, the chromatographic lipophilicity parameters of both studied compounds were calculated based on the retardation factor (RF) obtained for metformin and phenformin in each mobile phase and chromatographic plates used as the stationary phase. […]

[2] = NP-TLC chromatographic lipophilicity parameter (RMW); format: physicochemical; conditions: for RMW range over NP-TLC plates: four chromatographic plates; for RMW: NP-TLC
Protocol: as §1
The lipophilicity studies of the tested compounds were carried out on chromatographic plates 10 cm × 10 cm developed using mobile phases (50 mL) prepared by mixing the respective amounts of the organic modifier (methanol/acetonitrile/propan-1-ol/acetone) and water. In the case of NP-TLC analysis, the addition of 2.4% glacial acetic acid in the mobile phase methanol-water was used. The organic modifier concentrations (volume fraction, v/v) varied in a range from 0.40 to 0.90 in constant steps of 0.10. […] Chromatography was performed in a classical developing chamber, which was previously saturated with mobile phase vapors for 20 min. The migration distance was 7.0 cm. After the development, the plates were dried at room temperature (20 ± 1 °C) and visualized in UV light (λ = 254 nm) as the maximum wavelength for both biguanides. All analyses were repeated in triplicate. The average value of RF (retardation factor) was determined in every case.
as §2
Then, a linear correlation between the RM of the tested compounds and the volume ratio of the organic solvent in the mobile phase was performed for every chromatographic plate. The extrapolation of calculated RM values to the zero concentration of the organic modifier (i.e., to pure water) in accordance with Soczewiński-Wachtmeister’s Equation (2) allowed determining a valuable chromatographic parameter of lipophilicity expressed as RMW [1]. RM = RMW − S⋅φ(2) where RMW is the chromatographic parameter obtained using Soczewiński–Wachtmeister’s Equation (2), S is the regression slope, and φ is the volume fraction of the organic modifier (e.g., methanol, propan-1-ol, acetonitrile, acetone) in the mobile phase composition. Statistica v. 13.3 software (StatSoft, Kraków, Poland) was used to determine the parameters of these linear relationships.

[3] = n-octanol-water, literature value ref 46; cited from earlier work

Structure (SMILES)	RMW range over RP-TLC systems [1]	RMW range over NP-TLC plates ([2]; acetone-water)	RMW range over NP-TLC plates ([2]; methanol-water-acetic acid)	logPow [3]	RMW ([2]; Silica gel 60F254, acetone-water)	RMW ([2]; Silica gel 60F254 with concentrating zone, methanol-water-acetic acid)
CN(C)C(=N)N=C(N)N [Metformin, dimethylbiguanide]	−4.877 to 0.960	−4.127 to 1.242	−6.657 to 0.833	–	–	–
[H]/N=C(/N)N/C(=N/[H])NCCc1ccccc1 [Phenformin]	0.142 to 0.728	−4.383–0.790	−1.983–6.170	−0.83	-4.383	-1.983
